Source: patent US8975289B2, “Benzyl aralkyl ether compounds, method for preparing same, intermediate compounds, use of said compounds, method for treatment and/or prevention, pharmaceutical composition and medicament containing same” (priority 2009, dated 2015)
In brackets after ≈: the same amount, converted by molar mass.

Tests used:
Type in all cases: cell-based
[1] = test system: Trichophyton rubrum 40005; assay: Broth microdilution MIC (M38-A), filamentous fungi, strain XI
Experimental: (§1) For the experiments of the present invention, the dermatophyte-type fungi strains that were obtained from clinical isolates and laboratory isolates, as described in Table 2 as follows, were used:
(§2) The fungal strains were grown on agar potato medium in a sloping chute at a temperature of 30° C. for a period of 7 to 15 days.
(§3) For the experiments, the compound 1-[2-(2,4-dichlorophenyl)-2-{[4-(trifluoromethyl)benzyl]oxy}ethyl]-1H-imidazole (BL-123) in the form of its nitrate salt and miconazole nitrate were used. Both compounds were dissolved in dimethyl sulfoxide (DMSO) to match the final concentration of the compound equal to or less than 1%.
(§4) The methodology used to test the sensitivity of the agent was of broth microdilution according to the method described in Standard M38-A (Reference method for broth dilution tests for determining the sensitivity to antifungal therapy for filamentous fungi; NCCLS, volume 22 No. 16, USA, 2008) as follows.
(§5) The fungus was cultivated pursuant to item 4.1. To the tubes wherein the fungi were grown, 5 mL of saline solution were added in order to extract the fungi from the agar surface. Then, this homogeneous suspension was transferred to a new tube and the colony-forming units (CFUs) were quantified according to counting methods: (i) in Sabouraud dextrose agar plates and (ii) in a Neubauer chamber.
(§6) Then, the fungi strains listed in Table 2 were inoculated in duplicate in a 96-well plate. There were used inocula of from 2 to 6×10^3 CFU/mL of fungi, per well, in a total volume of 0.2 mL of RPMI-1640 (containing L-glutamine and without bicarbonate) buffered at pH 7.0 with MOPS (acid 3-(N-morpholine) 15 propanesulfonic). The procedure was performed in a laminar flow.
(§7) The compounds to be tested were added in a serial dilution, in duplicate, in final concentrations of 16 μg/mL; 8 μg/mL; 4 μg/mL; 2 μg/mL; 1 μg/mL; 0.5 μg/mL; 0.25 μg/mL; 0.125 μg/mL; 0.0625 μg/mL; or 0.03125 μg/mL in culture medium present in each well.
(§8) The incubation of fungi with these compounds was performed by 4, 5, 6 and 7 days at temperatures from 30 to 35° C.
(§9) The fungi quantification was carried out with the growth of fungi in each well being compared to the growth occurred in the negative control by means of a mirror reading. The negative control is represented by fungi grown in culture medium in the absence of the tested compounds. The methodology of this comparison is the numerical rating to which the microdilution well was submitted. […]

[2] = test system: Trichophyton mentagrophytes 9533; assay: Broth microdilution MIC (M38-A), filamentous fungi, strain XIII
Experimental: as §1, §2, §3, §4, §5, §6, §7, §8, §9

Trichophyton rubrum 455 = assay: Broth microdilution MIC (M38-A), filamentous fungi, strain VIII; details: for MIC: Trichophyton rubrum; for Resistance or sensitivity of the strain to the agent (in words): clinical isolate strain VIII
Experimental: as §1, §2, §3, §4, §5, §6, §7, §8
(§10) The fungi quantification was carried out with the growth of fungi in each well being compared to the growth occurred in the negative control by means of a mirror reading. The negative control is represented by fungi grown in culture medium in the absence of the tested compounds. The methodology of this comparison is the numerical rating to which the microdilution well was submitted. In this methodology, value 4 corresponds to no reduction of growth, value 3 corresponds to a slight reduction in growth or approximately 75% of the growth of the negative control, value 2 corresponds to a standout reduction in growth or approximately 50% of growth of negative control; value 1 corresponds to a slight growth or approximately 25% of the growth of the negative control, and value 0 corresponds to optically clear or absence of growth.
(§11) In this experiment, the minimum inhibitory concentration (MIC) is considered as the lowest concentration of the agent capable of inhibiting at least 80% of the growth of colony-forming units (CFUs).

Microsporum canis 373 = assay: Broth microdilution MIC (M38-A), filamentous fungi, strain VI
Experimental: as §1, §2, §3, §4, §5, §6, §7, §8, §9

[3] = test system: Staphylococcus epidermidis 12228; assay: Broth microdilution MIC (M7-A6), bacteria, strain XVII; details: Staphylococcus epidermidis; strain XVII 12228, 24 hours incubation; read-out: MIC
Experimental: (§12) For the experiments of the present invention (i) yeast strains obtained from clinical isolates and laboratory isolates, and (ii) bacterial strains obtained from laboratory isolates were used, as described in Table 5 as follows. […] The compounds were dissolved in dimethyl sulfoxide (DMSO) to match the final concentration of the compound equal to or less than 1%. The methodology used to test the sensitivity of the agent was broth microdilution according to the method described in Standard M7-A6 (Methodology of sensitivity tests to antimicrobial agents by dilution for bacteria with aerobic growth-6th Edition: NCCLS, volume 23, No. 2, USA, 2003), as follows. […] Then the suspensions were diluted in Mueller Hinton culture medium to a final concentration of 5×10^4CFU/mL. The diluted suspensions were inoculated in 0.1 mL in duplicates in […] plates. The procedure was performed in a laminar flow. […] Incubation of fungi with these compounds was carried out for 24 hours at a temperature of 30 to 35° C. […] We have agreed in this experiment that the turbid medium is the result of microbial growth and the presence of deposit and a clear medium represents the absence of microbial growth. The minimum inhibitory concentration (MIC) was defined as the lowest tested drug concentration that prevents any degree of bacterial growth.

Microsporum gypseum 24 = assay: Broth microdilution MIC (M38-A), filamentous fungi, strain III; details: Nannizzia gypsea
Experimental: as §1, §2, §3, §4, §5, §6, §7, §8, §9

[4] = test system: Candida parapsilosis 22019; assay: Broth microdilution MIC (M38-A), filamentous fungi test, strain IX; details: 96 h; strain IX 22019, reading Day 4, average of four experiments
Experimental: as §1, §2, §3, §4
The fungus was cultivated pursuant to item 4.1. […] Then, this homogeneous suspension was transferred to a new tube and the colony-forming units (CFUs) were quantified according to counting methods: (i) in Sabouraud dextrose agar plates and (ii) in a Neubauer chamber. […]
The fungi quantification was carried out with the growth of fungi in each well being compared to the growth occurred in the negative control by means of a mirror reading. […]

Aspergillus Niger 16404 = assay: Broth microdilution MIC (M38-A), filamentous fungi, strain I; details: for MIC: Aspergillus niger; for Resistance or sensitivity of the strain to the agent (in words): clinical isolate strain I
Experimental: as §1, §2, §3, §4, §5, §6, §7, §8, §10, §11

[5] = test system: Trichophyton mentagrophytes 2; assay: Broth microdilution MIC (M38-A), filamentous fungi, strain II
Experimental: as §1, §2, §3, §4, §5, §6, §7, §8, §9

[6] = test system: Trichophyton verrucosum 381; assay: Broth microdilution MIC (M38-A), filamentous fungi, strain VII; details: for MIC: Trichophyton verrucosum; for Resistance or sensitivity of the strain to the agent (in words): clinical isolate strain VII
Experimental: as §1, §2, §3, §4, §5, §6, §7, §8, §10, §11

[7] = test system: Trichophyton rubrum 28188; assay: Broth microdilution MIC (M38-A), filamentous fungi, strain V
Experimental: as §1, §2, §3, §4, §5, §6, §7, §8, §9

[8] = test system: Staphylococcus aureus 6538; assay: Broth microdilution MIC (M7-A6), bacteria, strain XVIII; details: Staphylococcus aureus; strain XVIII 6538, 24 hours incubation; read-out: MIC
Experimental: as §12

[9] = 96 h, strain XI 40005, reading Day 4, average of four experiments
[10] = 168 h, strain XI 40005, reading Day 7, average of four experiments
[11] = 96 h, strain XIII 9533, reading Day 4, average of four experiments
[12] = 168 h, strain XIII 9533, reading Day 7, average of four experiments
[13] = 96 h, strain VIII 455, reading Day 4, average of four experiments
[14] = 168 h, strain VIII 455, reading Day 7, average of four experiments
[15] = 96 h, strain VI 373, reading Day 4, average of four experiments
[16] = 168 h, strain VI 373, reading Day 7, average of four experiments
[17] = 96 h, strain III 24, reading Day 4, average of four experiments
[18] = 168 h, strain III 24, reading Day 7, average of four experiments
[19] = NIGER16404, 96 h, strain I 16404, reading Day 4, average of four experiments, >=80% growth inhibition
[20] = NIGER16404, 168 h, strain I 16404, reading Day 7, average of four experiments
[21] = 96 h, strain II 2, reading Day 4, average of four experiments
[22] = 168 h, strain II 2, reading Day 7, average of four experiments
[23] = 96 h, strain VII 381, reading Day 4, average of four experiments
[24] = 168 h, strain VII 381, reading Day 7, average of four experiments
[25] = 96 h, strain V 28188, reading Day 4, average of four experiments
[26] = 168 h, strain V 28188, reading Day 7, average of four experiments

FC(F)(F)c1ccc(COC(Cn2ccnc2)c2ccc(Cl)cc2Cl)cc1 (stereo not drawn) [BL-123, 1-[2-(2,4-dichlorophenyl)-2-{[4-(trifluoromethyl)benzyl]oxy}ethyl]-1H-imidazole]
MIC [1, 9]: 0.25 µg/mL (≈ 0.602 µM)
MIC [1, 10]: 0.5 µg/mL (≈ 1.2 µM)
MIC [2, 11]: 0.03 µg/mL (≈ 0.0722 µM)
MIC [2, 12]: 0.125 µg/mL (≈ 0.301 µM)
MIC (Trichophyton rubrum 455; [13]): 4 µg/mL (≈ 9.63 µM)
MIC (Trichophyton rubrum 455; [14]): 8 µg/mL (≈ 19.3 µM)
Resistance or sensitivity of the strain to the agent (in words) (Trichophyton rubrum 455): sensitive
MIC (Microsporum canis 373; [15]): 0.125 µg/mL (≈ 0.301 µM)
MIC (Microsporum canis 373; [16]): 0.5 µg/mL (≈ 1.2 µM)
MIC [3]: 4 µg/mL (≈ 9.63 µM)
MIC (Microsporum gypseum 24; [17]): 0.25 µg/mL (≈ 0.602 µM)
MIC (Microsporum gypseum 24; [18]): 0.25 µg/mL (≈ 0.602 µM)
MIC [4]: 2 µg/mL (≈ 4.82 µM)
MIC (Aspergillus Niger 16404; [19]): 8 µg/mL (≈ 19.3 µM)
MIC (Aspergillus Niger 16404; [20]): 8 µg/mL (≈ 19.3 µM)
Resistance or sensitivity of the strain to the agent (in words) (Aspergillus Niger 16404): sensitive
MIC [5, 21]: 4 µg/mL (≈ 9.63 µM)
MIC [5, 22]: 4 µg/mL (≈ 9.63 µM)
MIC [6, 23]: 4 µg/mL (≈ 9.63 µM)
MIC [6, 24]: > 16 µg/mL
Resistance or sensitivity of the strain to the agent (in words) [6]: sensitive
MIC [7, 25]: 0.03 µg/mL (≈ 0.0722 µM)
MIC [7, 26]: 0.03 µg/mL (≈ 0.0722 µM)
MIC [8]: 4 µg/mL (≈ 9.63 µM)

Clc1ccc(COC(Cn2ccnc2)c2ccc(Cl)cc2Cl)c(Cl)c1 (stereo not drawn) [Miconazole, miconazole, reference compound]
MIC [1, 9]: 0.5 µg/mL (≈ 1.2 µM)
MIC [1, 10]: 1 µg/mL (≈ 2.4 µM)
MIC [2, 11]: 0.06 µg/mL (≈ 0.144 µM)
MIC [2, 12]: 0.125 µg/mL (≈ 0.3 µM)
MIC (Trichophyton rubrum 455; [13]): > 16 µg/mL
MIC (Trichophyton rubrum 455; [14]): > 16 µg/mL
Resistance or sensitivity of the strain to the agent (in words) (Trichophyton rubrum 455): resistant
MIC (Microsporum canis 373; [15]): 0.5 µg/mL (≈ 1.2 µM)
MIC (Microsporum canis 373; [16]): 1 µg/mL (≈ 2.4 µM)
MIC [3]: 2 µg/mL (≈ 4.81 µM)
MIC (Microsporum gypseum 24; [17]): 0.05 µg/mL (≈ 0.12 µM)
MIC (Microsporum gypseum 24; [18]): 0.05 µg/mL (≈ 0.12 µM)
MIC [4]: 1 µg/mL (≈ 2.4 µM)
MIC (Aspergillus Niger 16404; [19]): > 16 µg/mL
MIC (Aspergillus Niger 16404; [20]): > 16 µg/mL
Resistance or sensitivity of the strain to the agent (in words) (Aspergillus Niger 16404): resistant
MIC [5, 21]: 1 µg/mL (≈ 2.4 µM)
MIC [5, 22]: 1 µg/mL (≈ 2.4 µM)
MIC [6, 23]: > 16 µg/mL
MIC [6, 24]: > 16 µg/mL
Resistance or sensitivity of the strain to the agent (in words) [6]: resistant
MIC [7, 25]: 0.03 µg/mL (≈ 0.0721 µM)
MIC [7, 26]: 0.06 µg/mL (≈ 0.144 µM)
MIC [8]: 2 µg/mL (≈ 4.81 µM)
